Source: US9526785B2, “Pharmaceuticals for oral delivery” (Enteris BioPharma, Inc., priority 2013, dated 2016)
Like-named read-outs stand apart in the source and are kept apart here.

Test: Tigecycline plasma PK and % F after PO enteric-coated capsule in dogs
Type: in vivo, Beagle dogs
Details: for concentration at 0 min: Time (min) 0.0; for concentration at 0.3 min: Time (min) 0.3; for concentration at 0.7 min: Time (min) 0.7; for concentration at 24 min: Time (min) 24.0; for Predicted AUC(0-t), % Difference / Predicted Mean Cmax, % Difference: observed vs predicted from 15 mg results; for Predicted AUC(0-t) / Predicted Mean Cmax: predicted from 15 mg results
Procedure: Adult beagle dogs weighing approximately 9 to 15 kg were used in the study. […] Room temperature was set to be maintained between approximately 20±5° C. Relative humidity was monitored but not controlled.
TEKLAD™ Certified Canine Diet was provided once daily in amounts (˜400 grams) appropriate for the size and age of the animals. Tap water was available ad libitum via automatic watering device or water bowls.
Oral dosing of enteric-coated capsules was accomplished by administering them to the back of the dog's mouth, followed by a chase of 5 mL water to ensure swallowing.
Water was provided ad libitum. […] Subsequently, each group of animals was dosed based on the protocol, i.e. either IV, or PO by capsule.
Minocycline (VWR international) was used as an internal standard. Sample processing/clean-up of plasma samples was carried out offline by protein precipitation with acidified acetonitrile using 0.5% trifluoroacetic acid (TFA).
The HPLC system consisted of Shimadzu SIL-HTc HPLC system equipped with dual Shimadzu LC-10ADvp isopumps, a Shimadzu CTO-10ASvp column temperature controller and a Shimadzu SPD-10Avp variable wavelength detector. […] Mobile phase A consisted of 23 mM phosphate buffer pH 2.5 with 4 mM 1-octanesulfonic acid, while mobile phase B consisting of 90% acetonitrile, 10% water, with 2 mM 1-octanesulfonic acid. […] The total runtime was 18 minutes per sample. The mobile phase flow rate was 1.2 mL/min. Detection was performed using the SPD-10Avp variable wavelength detector set at 350 nm, with a sensitivity of 0.001 aufs.
The samples were then centrifuged under refrigeration at 13 k rpm for 5 minutes. The supernatant was taken and the liquid removed to dryness under nitrogen in a turbovap. The dried extract was reconstituted in 60 μL of mobile phase A and the suspension was further centrifuged at 5 k rpm for 5 minutes to pellet any insoluble matter. The resulting supernatant was then injected onto the LC.
The unknown concentration in dog plasma samples was determined by interpolation of the peak area ratios of analyte:internal standard versus the ratio of their nominal concentrations into the regression line obtained from calibration standards spiked in pooled dog plasma. No regression weighting was used for the calculations. […] The calibration curve covered the range of 0.05 μg/mL to 5 μg/mL. […]
The capsules were enterically coated using a standard preclinical protocol to 10% weight gain. Two studies were conducted.

[1] = female, beagle, dog, plasma, po, 45 mg, Tigecycline Plasma Concentration, PO 45 mg enteric-coated capsule with 500 mg CA and 100 mg LLC, SC430, individual dogs
[2] = female, beagle, dog, plasma, po, 45 mg, Tigecycline Plasma Concentration, PO 45 mg enteric-coated capsule with 500 mg CA and 100 mg LLC, SC430, mean

Work on `CN(C)c1cc(NC(=O)CNC(C)(C)C)c(O)c2c1C[C@H]1C[C@H]3[C@H](N(C)C)C(O)=C(C(N)=O)C(=O)[C@@]3(O)C(O)=C1C2=O` [Tigecycline] yielded a Tmax (female, beagle, dog, plasma, po, 45 mg, 45 mg Formulated (500 mg CA, 100 mg LLC) enteric coated capsule, Study 2 (SC430), mean (% CV), read-out: Tmax (converted)) of 1.67 h, an AUC(0-t) (female, beagle, dog, plasma, po, 45 mg, PO 45 mg enteric-coated capsule with 500 mg CA and 100 mg LLC (SC430), read-out: AUC(0-t), mean) of 574 ng·h/mL and a Cmax (female, beagle, dog, plasma, po, 45 mg, PO 45 mg enteric-coated capsule with 500 mg CA and 100 mg LLC (SC430), read-out: Cmax, mean) of 177 ng/mL. It also gave a bioavailability (female, beagle, dog, plasma, po, 45 mg, PO 45 mg enteric-coated capsule with 500 mg CA and 100 mg LLC (SC430), read-out: absolute % F, mean) of 15.5%, an AUC(0-t) (female, beagle, dog, plasma, po, 45 mg, PO 45 mg enteric-coated capsule with 500 mg CA and 100 mg LLC ([…]), SC430, mean, read-out: AUC(0-t)) of 574 ng·h/mL and a Cmax (female, beagle, dog, plasma, po, 45 mg, PO 45 mg enteric-coated capsule with 500 mg CA and 100 mg LLC ([…]), SC430, mean, read-out: Cmax) of 177 ng/mL. For the same compound, the Tmax (female, beagle, dog, plasma, po, 45 mg, PO 45 mg enteric-coated capsule with 500 mg CA and 100 mg LLC ([…]), SC430, mean, read-out: Tmax (converted)) was 1.67 h, the bioavailability (female, beagle, dog, plasma, po, 45 mg, PO 45 mg enteric-coated capsule with 500 mg CA and 100 mg LLC, SC430, calculated from IV PK data of SC431, mean, read-out: % F) was 15.5% and the bioavailability (female, beagle, dog, plasma, po, 45 mg, Study 2 (SC430), 45 mg Formulated enteric coated capsule (500 mg citric acid, 100 mg LLC), oral, dogs, N=5, mean (% CV), based on that study's IV arm, read-out: % F) was 15.5%. It also gave a Tmax (female, beagle, dog, plasma, po, 45 mg, Study 2 (SC430), 45 mg Formulated enteric coated capsule (500 mg citric acid, 100 mg LLC), oral, dogs, N=5, mean (% CV), read-out: Tmax (converted)) of 1.67 h, an AUC(0-t) (female, beagle, dog, plasma, po, 45 mg, Study 2 (SC430), 45 mg Formulated enteric coated capsule (500 mg citric acid, 100 mg LLC), oral, dogs, N=5, mean (% CV), sampling 24 h, read-out: AUC(0-t)) of 574 ng·h/mL and a Cmax (female, beagle, dog, plasma, po, 45 mg, Study 2 (SC430), 45 mg Formulated enteric coated capsule (500 mg citric acid, 100 mg LLC), oral, dogs, N=5, mean (% CV), sampling 24 h, read-out: Cmax) of 177 ng/mL. It also gave a concentration at 0 min [1] of 0 ng/mL, a concentration at 0 min [2] of 0 ng/mL and a concentration at 0.3 min [1] of 0 ng/mL. For the same compound, the concentration at 0.3 min [2] was 0 ng/mL, the concentration at 0.7 min [1] was 0 ng/mL and the concentration at 0.7 min [2] was 0 ng/mL. The concentration at 1 min (female, beagle, dog, plasma, po, 45 mg, Tigecycline Plasma Concentration, Time (min) 1.0, PO 45 mg enteric-coated capsule with 500 mg CA and 100 mg LLC, SC430, mean) was 56.4 ng/mL, the concentration at […] (female, beagle, dog, plasma, po, 45 mg, Tigecycline Plasma Concentration, Time (min) 1.3, PO 45 mg enteric-coated capsule with 500 mg CA and 100 mg LLC, SC430, mean) was 58.3 ng/mL and the concentration at […] (female, beagle, dog, plasma, po, 45 mg, Tigecycline Plasma Concentration, Time (min) 1.7, PO 45 mg enteric-coated capsule with 500 mg CA and 100 mg LLC, SC430, mean) was 101 ng/mL. For the same compound, the concentration at 2 min (female, beagle, dog, plasma, po, 45 mg, Tigecycline Plasma Concentration, Time (min) 2.0, PO 45 mg enteric-coated capsule with 500 mg CA and 100 mg LLC, SC430, mean) was 144 ng/mL, the concentration at […] (female, beagle, dog, plasma, po, 45 mg, Tigecycline Plasma Concentration, Time (min) 2.3, PO 45 mg enteric-coated capsule with 500 mg CA and 100 mg LLC, SC430, mean) was 108 ng/mL and the concentration at […] (female, beagle, dog, plasma, po, 45 mg, Tigecycline Plasma Concentration, Time (min) 2.7, PO 45 mg enteric-coated capsule with 500 mg CA and 100 mg LLC, SC430, mean) was 98.6 ng/mL. For the same compound, the concentration at 3 min (female, beagle, dog, plasma, po, 45 mg, Tigecycline Plasma Concentration, Time (min) 3.0, PO 45 mg enteric-coated capsule with 500 mg CA and 100 mg LLC, SC430, mean) was 76.5 ng/mL, the concentration at […] (female, beagle, dog, plasma, po, 45 mg, Tigecycline Plasma Concentration, Time (min) 3.3, PO 45 mg enteric-coated capsule with 500 mg CA and 100 mg LLC, SC430, mean) was 68.7 ng/mL and the concentration at […] (female, beagle, dog, plasma, po, 45 mg, Tigecycline Plasma Concentration, Time (min) 3.7, PO 45 mg enteric-coated capsule with 500 mg CA and 100 mg LLC, SC430, mean) was 62 ng/mL. For the same compound, the concentration at 4 min (female, beagle, dog, plasma, po, 45 mg, Tigecycline Plasma Concentration, Time (min) 4.0, PO 45 mg enteric-coated capsule with 500 mg CA and 100 mg LLC, SC430, mean) was 51.7 ng/mL, the concentration at […] (female, beagle, dog, plasma, po, 45 mg, Tigecycline Plasma Concentration, Time (min) 4.5, PO 45 mg enteric-coated capsule with 500 mg CA and 100 mg LLC, SC430, mean) was 48.9 ng/mL and the concentration at 5 min (female, beagle, dog, plasma, po, 45 mg, Tigecycline Plasma Concentration, Time (min) 5.0, PO 45 mg enteric-coated capsule with 500 mg CA and 100 mg LLC, SC430, mean) was 50.6 ng/mL. The concentration at […] (female, beagle, dog, plasma, po, 45 mg, Tigecycline Plasma Concentration, Time (min) 5.5, PO 45 mg enteric-coated capsule with 500 mg CA and 100 mg LLC, SC430, mean) was 42.5 ng/mL, the concentration at 6 min (female, beagle, dog, plasma, po, 45 mg, Tigecycline Plasma Concentration, Time (min) 6.0, PO 45 mg enteric-coated capsule with 500 mg CA and 100 mg LLC, SC430, mean) was 35.2 ng/mL and the concentration at 8 min (female, beagle, dog, plasma, po, 45 mg, Tigecycline Plasma Concentration, Time (min) 8.0, PO 45 mg enteric-coated capsule with 500 mg CA and 100 mg LLC, SC430, mean) was 22.9 ng/mL. The concentration at 10 min (female, beagle, dog, plasma, po, 45 mg, Tigecycline Plasma Concentration, Time (min) 10.0, PO 45 mg enteric-coated capsule with 500 mg CA and 100 mg LLC, SC430, mean) was 16.8 ng/mL, the concentration at 24 min [1] was 0 ng/mL and the concentration at 24 min [2] was 0 ng/mL. It also gave a Cmax (female, beagle, dog, plasma, po, 45 mg, target dose 45 mg, enterically coated capsule, read-out: Observed Mean Cmax) of 177 ng/mL, an AUC(0-t) (female, beagle, dog, plasma, po, 45 mg, target dose 45 mg, enterically coated capsule, time scale adjusted to 4 hours, read-out: Observed AUC(0-t)) of 266 ng·h/mL and a Tmax (female, beagle, dog, plasma, po, all studied oral formulations, read-out: Tmax, mean (converted)) of roughly 1.67 h. For the same compound, the “Predicted AUC(0-t), % Difference” value (target dose 30 mg) was −23.9%, the “Predicted Mean Cmax, % Difference” value (target dose 30 mg) was −24.8% and the “Predicted AUC(0-t)” value (target dose 30 mg) was 265 ng·h/mL. The “Predicted Mean Cmax” value (target dose 30 mg) was 151 ng/mL, the “Predicted AUC(0-t), % Difference” value (target dose 45 mg) was −49.4% and the “Predicted Mean Cmax, % Difference” value (target dose 45 mg) was −28.0%. The “Predicted AUC(0-t)” value (target dose 45 mg) was 398 ng·h/mL and the “Predicted Mean Cmax” value (target dose 45 mg) was 226 ng/mL.
